Assay results taken from patent US20260286295A1, “COMPOSITION FOR INDUCING DIRECT DIFFERENTIATION OF STEM CELLS INTO CORNEAL ENDOTHELIAL CELLS AND METHOD FOR INDUCING DIRECT DIFFERENTIATION USING SAME” (THE ASAN FOUNDATION, priority 2023, published 2026).

tested on: iPSCs; test: ZO-1 immunocytochemical staining, efficiency of direct differentiation of iPSCs into CECs; assay type: cell-based, human; conditions: concluded from culture media that omit the constituent (Examples 3-4 to 3-7)
Procedure: To compare the effect on differentiation efficiency using ZO-1 marker staining of iPSC-derived CECs, CECs were fixed in 4% paraformaldehyde for 30 minutes, washed with PBS buffer, permeabilized with 0.5% Triton X-100, and blocked in PBST containing 1% bovine serum albumin (Sigma-Aldrich). […] Nuclei were counterstained for 10 minutes with 4′,6-diamidino-2-phenylindole (DAPI; Sigma-Aldrich), and fluorescence signals were detected using a laser scanning confocal microscope (Olympus, Tokyo, Japan) or a fluorescence microscope (EVOS, Life Technologies).

Structure (SMILES) | role of the constituent in direct differentiation from iPSCs into CECs
Cc1cncc2cccc(S(=O)(=O)N3CCCNC[C@@H]3C)c12 [Example H-1152, (2S)-2-methyl-1-[(4-methyl-5-isoquinolinyl)sulfonyl]hexahydro-1H-1,4-diazepine] | important
NC(=O)c1ccc(-c2nc(-c3ccc4c(c3)OCO4)c(-c3ccccn3)[nH]2)cc1 [SB431542, 4-[4-(2H-1,3-benzodioxol-5-yl)-5-(pyridin-2-yl)-1H-imidazol-2-yl]benzamide] | important
O=S(=O)(c1cccc2cnccc12)N1CCCNCC1 [Fasudil, fasudil] | important
